Reference: BigSolDB 2.1

CC12CCC(CC1=O)C2(C)C (stereo not drawn)
Conditions | solubility (mole fraction)
in acetone, 303.15 K | 0.553
in acetone, 308.15 K | 0.571
in acetone, 313.55 K | 0.594
in acetone, 319.25 K | 0.614
in acetone, 323.15 K | 0.627
in ethanol, 303.15 K | 0.365
in ethanol, 308.15 K | 0.396
in ethanol, 313.15 K | 0.412
in ethanol, 318.15 K | 0.451
in ethanol, 322.95 K | 0.508
in ethanol, 327.95 K | 0.538
in ethanol, 333.35 K | 0.588
in ethanol, 338.15 K | 0.63
in ethanol, 343.15 K | 0.699
in p-cymene, 303.85 K | 0.58
in p-cymene, 308.05 K | 0.589
in p-cymene, 313.15 K | 0.601
in p-cymene, 317.95 K | 0.609
in p-cymene, 323.65 K | 0.624
in p-cymene, 328.15 K | 0.631
in p-cymene, 333.35 K | 0.641
in p-cymene, 337.95 K | 0.652
in p-cymene, 343.05 K | 0.664
in p-xylene, 303.05 K | 0.6
in p-xylene, 308.15 K | 0.637
in p-xylene, 313.15 K | 0.66
in p-xylene, 318.15 K | 0.683
in p-xylene, 323.25 K | 0.714
in p-xylene, 327.85 K | 0.736
in p-xylene, 328.15 K | 0.739
in p-xylene, 333.15 K | 0.77
in p-xylene, 338.35 K | 0.795
in p-xylene, 343.15 K | 0.824
